Experimental data published in the NIST ThermoML archive (doi:10.1021/je7001368).

Test: mn = molality of the nth substance listed, in mol/kg
Conditions: 101 kPa, Liquid

O=C([O-])CC(O)(CC(=O)[O-])C(=O)[O-].[K+].[K+].[K+] [potassium citrate] + O
Conditions	mass density [kg/m3]	speed of sound [m/s]
288.15 K, m1 = 0.0185	1002.99	1470.8
288.15 K, m1 = 0.0304	1005.44	1473.4
288.15 K, m1 = 0.031	1005.55	1473.5
288.15 K, m1 = 0.0558	1010.5	1478.6
288.15 K, m1 = 0.0899	1017.35	1485.7
288.15 K, m1 = 0.1258	1024.33	1493.8
288.15 K, m1 = 0.1931	1037.25	1506.5
288.15 K, m1 = 0.2653	1050.77	1519.9
288.15 K, m1 = 0.3412	1064.51	1534.3
288.15 K, m1 = 0.4565	1084.71	1556.7
288.15 K, m1 = 0.5796	1105.19	1578.4
288.15 K, m1 = 0.7446	1131.73	1608.1
293.15 K, m1 = 0.0185	1002.05	1486.7
293.15 K, m1 = 0.0304	1004.5	1489.1
293.15 K, m1 = 0.031	1004.61	1489.3
293.15 K, m1 = 0.0558	1009.51	1494.3
293.15 K, m1 = 0.0899	1016.3	1501.1
293.15 K, m1 = 0.1258	1023.23	1509
293.15 K, m1 = 0.1931	1036.06	1521.2
293.15 K, m1 = 0.2653	1049.48	1534.2
293.15 K, m1 = 0.3412	1063.13	1548.1
293.15 K, m1 = 0.4565	1083.21	1569.7
293.15 K, m1 = 0.5796	1103.58	1590.6
293.15 K, m1 = 0.7446	1129.91	1619.4
298.15 K, m1 = 0.0185	1000.87	1500.8
298.15 K, m1 = 0.0304	1003.29	1503.2
298.15 K, m1 = 0.031	1003.4	1503.3
298.15 K, m1 = 0.0558	1008.27	1508.1
298.15 K, m1 = 0.0899	1015.02	1514.7
298.15 K, m1 = 0.1258	1021.9	1522.4
298.15 K, m1 = 0.1931	1034.64	1534.3
298.15 K, m1 = 0.2653	1047.99	1546.8
298.15 K, m1 = 0.3412	1061.56	1560.2
298.15 K, m1 = 0.4565	1081.54	1581.2
298.15 K, m1 = 0.5796	1101.81	1601.3
298.15 K, m1 = 0.7446	1128.11	1629.2
303.15 K, m1 = 0.0185	999.449	1513
303.15 K, m1 = 0.0304	1001.86	1515.4
303.15 K, m1 = 0.031	1001.97	1515.5
303.15 K, m1 = 0.0558	1006.81	1520.2
303.15 K, m1 = 0.0899	1013.52	1526.6
303.15 K, m1 = 0.1258	1020.35	1534.1
303.15 K, m1 = 0.1931	1033.03	1545.6
303.15 K, m1 = 0.2653	1046.31	1557.7
303.15 K, m1 = 0.3412	1059.82	1570.7
303.15 K, m1 = 0.4565	1079.71	1591.1
303.15 K, m1 = 0.5796	1099.9	1610.6
303.15 K, m1 = 0.7446	1126.1	1637.7
308.15 K, m1 = 0.0185	997.814	1523.6
308.15 K, m1 = 0.0304	1000.21	1525.9
308.15 K, m1 = 0.031	1000.32	1526.1
308.15 K, m1 = 0.0558	1005.14	1530.6
308.15 K, m1 = 0.0899	1011.81	1536.8
308.15 K, m1 = 0.1258	1018.62	1544.2
308.15 K, m1 = 0.1931	1031.24	1555.3
308.15 K, m1 = 0.2653	1044.46	1567.1
308.15 K, m1 = 0.3412	1057.91	1579.7
308.15 K, m1 = 0.4565	1077.72	1599.7
308.15 K, m1 = 0.5796	1097.85	1618.5
308.15 K, m1 = 0.7446	1123.97	1644.9
313.15 K, m1 = 0.0185	995.982	1532.7
313.15 K, m1 = 0.0304	998.37	1534.9
313.15 K, m1 = 0.031	998.478	1535
313.15 K, m1 = 0.0558	1003.28	1539.5
313.15 K, m1 = 0.0899	1009.92	1545.5
313.15 K, m1 = 0.1258	1016.7	1552.8
313.15 K, m1 = 0.1931	1029.28	1563.6
313.15 K, m1 = 0.2653	1042.44	1575
313.15 K, m1 = 0.3412	1055.86	1587.3
313.15 K, m1 = 0.4565	1075.6	1606.9
313.15 K, m1 = 0.5796	1095.67	1625.1
313.15 K, m1 = 0.7446	1121.72	1650.8
